Patent US9371317B2, “Sweet flavor modifier” (SENOMYX, INC., priority 2013, dated 2016)

Assays:
human panelists [1] = experiment: Sweetness threshold: paired comparison taste test, LSB+compound at pH 7.1 vs. 1% sucrose; format: in vivo; settings: 25 ppm compound in LSB
Procedure: (§1) Test samples containing experimental compounds are presented in pairs to the panelist and they are asked to determine which of the sample is sweeter. […] A group of 10 to 16 or more panelists participated in each test. Subjects refrained from eating or drinking (except water) for at least 1 hour prior to the test. Subjects rinsed with water several times to clean the mouth.
(§2) Taste tests were performed with sucrose or HFCS as the sweetener in the presence or absence of compound. A 0.2% stock solution of compound in water with sodium bicarbonate was prepared and then this stock solution was diluted in the final sample to achieve the targeted final concentration of compound. Taste samples were also prepared in a low sodium phosphate buffer (pH 7.1; “LSB”) lacking sucrose or HFCS to evaluate the taste of the compound alone. Low sodium phosphate buffer consists of 0.3 mM KCl, 0.5 mM Na2HPO4, and 0.175 mM KH2PO4. Sample volumes are usually 20 ml.
(§3) In one paired comparison test, the panelist is presented with two different samples and asked to identify the sample which is sweeter. The samples within a paired comparison test are presented in a randomized, counterbalanced order. Panelists have up to a 1 minute delay between taste tests to clear the mouth of any tastes. […]

human panelists [2] = experiment: Enhancement of HFCS at pH 2.8: paired comparison taste test, 6% HFCS+compound vs. 8% or 9% HFCS; format: in vivo; settings: 20 ppm compound in 6% HFCS
Procedure: as §1, §2, §3

human panelists [3] = experiment: Enhancement of sucrose at pH 2.8: paired comparison taste test, 6% sucrose+compound vs. 10%, 11% or 12% sucrose; format: in vivo
Procedure: as §1, §2, §3

human panelists [4] = experiment: Enhancement of sucrose at pH 7.1: paired comparison taste test, 6% sucrose+compound vs. 10%, 11% or 12% sucrose; format: in vivo; settings: 10 ppm compound in 6% sucrose
Procedure: as §1, §2, §3

Row | SMILES | melting point | Sweetness of compound alone vs. 1% sucrose (human panelists [1]) | HFCS equivalence of 6% HFCS + compound (human panelists [2]) | Sucrose equivalence of 6% sucrose + compound (human panelists [3]; 5 ppm compound in 6% sucrose) | Sucrose equivalence of 6% sucrose + compound (human panelists [3]; 10 ppm compound in 6% sucrose) | Sucrose equivalence of 6% sucrose + compound (human panelists [4])
1 | NC1=NS(=O)(=O)Nc2cccc(OCC3(NC(=O)c4ccncc4)CCCC3)c21 [Example 9, N-(1-(((4-amino-2,2-dioxido-1H-benzo[c][1,2,6]thiadiazin-5-yl)oxy)methyl)cyclopentyl)isonicotinamide] | > 250 °C | – | – | – | – | –
2 | CC(C)(COc1cccc2c1C(N)=NS(=O)(=O)N2)NC(=O)c1ccncc1 [Compound A1, N-(1-(4-amino-2,2-dioxide-1H-benzo[c][1,2,6]thiadiazin-5-yloxy)-2-methylpropan-2-yl)isonicotinamide] | 235 to 238 °C | 25 ppm equivalent to 1% sucrose | 20 ppm in 6% HFCS is equivalent to 9% HFCS | 5 ppm in 6% sucrose is equivalent to 11% sucrose | 10 ppm in 6% sucrose is equivalent to 12% sucrose | 10 ppm in 6% sucrose is equivalent to 10% sucrose
3 | Cc1cc(C(=O)NC(C)(C)COc2cccc3c2C(N)=NS(=O)(=O)N3)ccn1 [Example 2, N-(1-((4-amino-2,2-dioxide-1H-benzo[c][1,2,6]thiadiazin-5-yl)oxy)-2-methylpropan-2-yl)-2-methylisonicotinamide] | 238 to 240 °C | – | – | – | – | –
